This test has as its system BDF1 mice, P388 leukemia ip, median survival T/C. The test is described as follows: NCI In Vivo Anticancer Drug Screen. Data for tumor model P388 Leukemia (intraperitoneal) in B6D2F1 (BDF1) mice. The following applies: endpoint: median survival time, higher = longer survival. The method in brief: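 Survival ratio, drug arm over vehicle arm, in mice with a transplanted tumour.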

[1] abbreviates: dose: 100.0 mg/kg/injection, schedule: Q04DX003 (ip), vehicle: saline with Tween-80.
The mark [2] stands for this setting: dose: 200.0 mg/kg/injection, schedule: Q04DX003 (ip), vehicle: saline with Tween-80.
[3] abbreviates: dose: 50.0 mg/kg/injection, schedule: Q01DX009 (ip), vehicle: saline with Tween-80.
Where [4] appears, read: dose: 100.0 mg/kg/injection, schedule: Q01DX009 (ip), vehicle: saline with Tween-80.
Where [5] appears, read: dose: 100.0 mg/kg/injection, schedule: Q01DX001 (ip), vehicle: saline with Tween-80.
[6] abbreviates: dose: 200.0 mg/kg/injection, schedule: Q01DX001 (ip), vehicle: saline with Tween-80.
The mark [7] stands for this setting: dose: 25.0 mg/kg/injection, schedule: Q01DX009 (ip), vehicle: saline.
Setting [8] is: dose: 50.0 mg/kg/injection, schedule: Q01DX009 (ip), vehicle: saline.
Where [9] appears, read: dose: 100.0 mg/kg/injection, schedule: Q01DX009 (ip), vehicle: saline.
[10] abbreviates: dose: 100.0 mg/kg/injection, schedule: Q04DX003 (ip), vehicle: saline.
Setting [11] is: dose: 200.0 mg/kg/injection, schedule: Q04DX003 (ip), vehicle: saline.
The mark [12] stands for this setting: dose: 400.0 mg/kg/injection, schedule: Q04DX003 (ip), vehicle: saline.
The mark [13] stands for this setting: dose: 25.0 mg/kg/injection, schedule: Q04DX003 (ip), vehicle: saline.
The mark [14] stands for this setting: dose: 50.0 mg/kg/injection, schedule: Q04DX003 (ip), vehicle: saline.
[15] abbreviates: dose: 200.0 mg/kg/injection, schedule: Q01DX009 (ip), vehicle: saline with Tween-80.

In PubChem BioAssay AID328 (DTP/NCI, 2004) one finds T/C data, which are given here for 20 molecules.

Several values for one entry are separate records, joined by “and”; a condition that tells them apart may be missing. Identical values can stand only once. Inconclusive results and toxic doses are left out.

Consider `CN(C)c1ccc(C(=O)c2ccccc2)cc1`, for which the T/C reads like this: (dose: 25.0 mg/kg/injection, schedule: Q01DX009 (ip), vehicle: Klucel (hydroxypropylcellulose) (HPC)) 104 % of control; (dose: 50.0 mg/kg/injection, schedule: Q01DX009 (ip), vehicle: Klucel (hydroxypropylcellulose) (HPC)) 90 % of control; (dose: 100.0 mg/kg/injection, schedule: Q01DX009 (ip), vehicle: Klucel (hydroxypropylcellulose) (HPC)) 95 % of control.

In the case of `CCN1CCCC(Nc2nc(Nc3cc(Cl)cc(Cl)c3)nc3cc(Cl)ccc23)C1` (stereo not given), the T/C (dose: 37.5 mg/kg/injection, schedule: Q01DX001 (ip), vehicle: saline sonified) was 120 % of control; the T/C (dose: 75.0 mg/kg/injection, schedule: Q01DX001 (ip), vehicle: saline sonified) was 115 % of control; the T/C (dose: 150.0 mg/kg/injection, schedule: Q01DX001 (ip), vehicle: saline sonified) is 120 % of control.

`CC(CCCc1ccccc1)(C(=O)O)C(=O)O`: the T/C by setting is: (dose: 100.0 mg/kg/injection, schedule: Q04DX002 (ip), vehicle: saline with Tween-80) 96 % of control; (dose: 200.0 mg/kg/injection, schedule: Q04DX002 (ip), vehicle: saline with Tween-80) 98 % of control; (dose: 400.0 mg/kg/injection, schedule: Q04DX002 (ip), vehicle: saline with Tween-80) 102 % of control.

In the case of `CCCCSc1nc(N)nc2c1ncn2CC(C)CC` (stereo not given), the T/C by setting is: under setting [1], 100 % of control; under setting [2], 100 % of control; (dose: 400.0 mg/kg/injection, schedule: Q04DX003 (ip), vehicle: saline with Tween-80) 100 % of control.

Take `CCC1=C(c2cc(Cl)c3ccccc3c2OCC(=O)O)OC(CC)(C(=O)c2cc(Cl)c3ccccc3c2OCC(=O)O)CC1` (stereo not given): the T/C was 90 % of control (dose: 25.0 mg/kg/injection, schedule: Q01DX009 (ip), vehicle: saline with Tween-80); 95 % of control under setting [3]; 100 % of control (dose: 50.0 mg/kg/injection, schedule: Q04DX003 (ip), vehicle: saline sonified); 115 % of control under setting [4]; 90 % of control (dose: 200.0 mg/kg/injection, schedule: Q04DX003 (ip), vehicle: saline sonified).

Take `COC(C)c1cnccc1C(C)c1cc2ccccc2[nH]1` (stereo not given): the T/C by setting is: under setting [5], 105 % of control; under setting [6], 108 % of control.

Consider `Cn1c(=O)c2nc(-c3ccc(Cl)cc3)c(-c3ccc(Cl)cc3)nc2n(C)c1=O`, for which the T/C was 110 % of control under setting [5] and 112 % of control under setting [6].

As to `Cc1cc(NC(=O)c2ccccc2)c(Cl)cc1N`, the T/C is 95 % of control (dose: 50.0 mg/kg/injection, schedule: Q04DX003 (ip), vehicle: saline with Tween-80); 95 % of control under setting [1]; 95 % of control under setting [2].

Take `CN(C)CCOCN1COCC1(C)C`: the T/C under setting [3] is 120 % of control.

In the case of `C1CC[N-]CC1.C1CC[N-]CC1.C1CC[N-]CC1.[Cl][Rh]([Cl])[Cl]`, the T/C (dose: 12.5 mg/kg/injection, schedule: Q01DX009 (ip), vehicle: saline) is 156 % of control; the T/C under setting [7] is 157 % of control; the T/C under setting [8] is 161 % of control and 175 % of control.

For `CCCCCCCCNC(=O)C1OC(n2cnc3c(N)ncnc32)C(O)C1O` (stereo not given), the T/C reads like this: under setting [7], 95 % of control; under setting [8], 90 % of control; under setting [9], 95 % of control and 105 % of control; under setting [10], 95 % of control; (dose: 200.0 mg/kg/injection, schedule: Q01DX009 (ip), vehicle: saline) 90 % of control and 109 % of control; under setting [11], 105 % of control. Also, the T/C under setting [12] was 90 % of control.

Turning to `OC1CCC2(CC1)Cc1ccccc1C2O` (stereo not given), the T/C reads like this: under setting [5], 114 % of control; under setting [6], 119 % of control; (dose: 400.0 mg/kg/injection, schedule: Q01DX001 (ip), vehicle: saline with Tween-80) 119 % of control.

On to `NC1CONC1=O` (stereo not given), for which the T/C is 90 % of control under setting [7]; 104 % of control under setting [13]; 95 % of control under setting [8]; 100 % of control under setting [14]; 90 % of control under setting [9]; 104 % of control under setting [10]. For the same molecule, the T/C is 100 % of control under setting [11]; 100 % of control (dose: 400.0 mg/kg/injection, schedule: Q01DX009 (ip), vehicle: saline); 100 % of control under setting [12].

For `CCOC(=O)C1(c2ccccc2)CCCN(C)CC1` (stereo not given), under setting [10], the T/C is 94 % of control.

With `CSCC1(O)CCCCC1`, the T/C by setting is: under setting [3], 111 % of control; under setting [4], 101 % of control; under setting [15], 112 % of control.

As to `N/C(=N\Cl)C(Cl)(Cl)Cl`, the T/C was 109 % of control (dose: 12.5 mg/kg/injection, schedule: Q04DX003 (ip), vehicle: saline); 150 % of control under setting [7]; 118 % of control under setting [13]; 118 % of control (dose: 33.0 mg/kg/injection, schedule: Q04DX003 (ip), vehicle: saline); 118 % of control (dose: 37.5 mg/kg/injection, schedule: Q01DX009 (ip), vehicle: saline); 118 % of control under setting [14]. Besides, the T/C (dose: 75.0 mg/kg/injection, schedule: Q04DX003 (ip), vehicle: saline) was 118 % of control.

Take `O=C(O)c1c(Cl)cc(Cl)c(-c2c(Cl)cc(Cl)c(C(=O)O)c2Cl)c1Cl`: the T/C under setting [4] was 112 % of control; the T/C under setting [15] is 108 % of control; the T/C (dose: 400.0 mg/kg/injection, schedule: Q01DX009 (ip), vehicle: saline with Tween-80) is 108 % of control.

As to `CNC(=O)C(C)(C)Br`, the T/C is 100 % of control under setting [11] and 90 % of control under setting [12].

With `COc1cc2c(c(OC)c1OC)-c1cc3c(cc1[C@@H](OC(C)=O)[C@@H]1COC(=O)[C@H]1C2)OCO3`, the T/C runs as follows: (dose: 1.0 mg/kg/injection, schedule: Q01DX009 (ip), vehicle: saline + alcohol) 118 % of control; (dose: 1.3 mg/kg/injection, schedule: Q01DX009 (ip), vehicle: saline) 100 % of control; (dose: 1.77 mg/kg/injection, schedule: Q01DX009 (ip), vehicle: saline) 100 % of control; (dose: 2.0 mg/kg/injection, schedule: Q01DX009 (ip), vehicle: saline + alcohol) 118 % of control; (dose: 2.0 mg/kg/injection, schedule: Q01DX009 (ip), vehicle: saline) 100 % of control; (dose: 2.66 mg/kg/injection, schedule: Q01DX009 (ip), vehicle: saline) 90 % of control. The T/C reads like this: (dose: 3.0 mg/kg/injection, schedule: Q01DX009 (ip), vehicle: saline) 104 % of control; (dose: 4.0 mg/kg/injection, schedule: Q01DX009 (ip), vehicle: saline + alcohol) 118 % of control; (dose: 4.0 mg/kg/injection, schedule: Q01DX009 (ip), vehicle: saline) 90 % of control; (dose: 6.0 mg/kg/injection, schedule: Q01DX009 (ip), vehicle: saline) 100 % of control; (dose: 6.22 mg/kg/injection, schedule: Q01DX009 (ip), vehicle: saline + alcohol) 116 % of control; (dose: 8.0 mg/kg/injection, schedule: Q01DX009 (ip), vehicle: saline + alcohol) 113 % of control. For the same molecule, the T/C runs as follows: (dose: 8.9 mg/kg/injection, schedule: Q01DX009 (ip), vehicle: saline) 104 % of control; (dose: 9.33 mg/kg/injection, schedule: Q01DX009 (ip), vehicle: saline + alcohol) 112 % of control; (dose: 12.0 mg/kg/injection, schedule: Q01DX009 (ip), vehicle: saline) 115 % of control; (dose: 13.3 mg/kg/injection, schedule: Q01DX009 (ip), vehicle: saline) 113 % of control; (dose: 14.0 mg/kg/injection, schedule: Q01DX009 (ip), vehicle: saline + alcohol) 120 % of control; (dose: 18.0 mg/kg/injection, schedule: Q01DX009 (ip), vehicle: saline) 100 % of control. In addition, the T/C runs as follows: (dose: 20.0 mg/kg/injection, schedule: Q01DX009 (ip), vehicle: saline) 109 % of control; (dose: 21.0 mg/kg/injection, schedule: Q01DX009 (ip), vehicle: saline + alcohol) 91 % of control.

Consider `CC(=O)CC(=O)C(F)(F)F.CC(=O)CC(=O)C(F)(F)F.[O]=[V]`, for which the T/C runs as follows: (dose: 3.8 mg/kg/injection, schedule: Q01DX009 (ip), vehicle: Klucel (hydroxypropylcellulose) (HPC)) 106 % of control; (dose: 7.5 mg/kg/injection, schedule: Q01DX009 (ip), vehicle: Klucel (hydroxypropylcellulose) (HPC)) 91 % of control.
